Patent US7579375B2, “Branched carboxylic acid compound and use thereof” (Ono Pharmaceutical Co., Ltd., priority 2003, dated 2009)

Legend:
6 weeks-old male rat = assay: Long-term repetitive oral dosing, general side effect; format: in vivo; details: orally once daily, 250 mg/kg per once
Protocol: Each test compounds were dissolved with an aqueous solution of trisodium phosphate, and diluted with a water for injection. The obtained drug solution was orally administrated once daily to 6 weeks-old male rat by long-term repetitive dosing at a dose of 250 mg/kg per once.

S100β = assay: Intracellular S100β content in secondary cultured astrocytes (ELISA); format: cell-based, rat; details: astrocytes treated 2 weeks, control group 2177.0±147.74
Text: The 1 to 2 day-old neonatal Wistar rats (10 animals) were decapitated and sterilized their heads in ethanol. Ethanol and blood was removed in ice-cold DMEM medium (purchased from Sigma). Meningis was peeled and cortex of cerebrum was removed in ice-cold DMEM medium (purchased from Sigma) under the stereomicroscope. The cortex of cerebrum was minced with frosted glass-slides (purchased from Matsunami) to suspension in ice-cold DMEM medium (purchased from Sigma). Cell suspension was filtrated with 70 micrometer-diameter filter (falcon2350). The filtrate was centrifuged at 100×g for 3 minutes, and the pellet was re-suspended in 10% FCS (fetal calf serum)-containing DMEM medium. The washing procedure using 10% FCS-DMEM medium was repeated 3 times and cells were re-suspended in 10% FCS-DMEM medium. The obtained cell suspension was plated in 75 cm^2 flask (falcon3024) (one flask (containing 12 ml of medium) containing cells obtained from one neonatal rat), and cultured at 37° C. under an atmosphere of 5% CO2, 95% air (0 day of culture). After 2 days of culture (2 days of culture), culture media was aspirated and flask was shaken by hands to remove an unadhesive cells. The flask was washed with DMEM medium and the suspended cells ware removed. This procedure was repeated 3 times till the unadhesive cells were removed completely confirmed by microscope. Then, 10% FCS-DMEM medium was added to flask (12 ml/flask) and cultured at 37° C. under an atmosphere of 5% CO2, 95% air (medium was changed in 12 days after onset of culture).
Primary culture of Astrocytes (19 days after onset of culture, 3 flasks) was purified by the same procedure as used in cell purification in primary culture. Then, the adhesive cells were treated with 0.05% Trypsin-1 mmol/L EDTA at 37° C. till the cells were detached. The cells were suspended in 10% FCS-DMEM medium and transferred to microtube. After centrifugation at 100×g for 3 minutes, the pellet was resuspended in 10% FCS-DMEM medium. A portion of cell suspension was mixed with an equal volume of Trypan-Blue solution. The number of living cells was measured by using the Burker-Turk counting chamber under the phase-contrast microscope. Cells were suspended in 10% FCS-DMEM medium at the cell density of 2×10^5 cells/ml and cultured in 48 well culture plate (6 plates, 0.5 ml/well) at 37° C. under an atmosphere of 5% CO2, 95% air. After 24 hour cultivation, culture medium was changed to the test-compound containing medium (0.5 ml/well), and the cultivation was conducted for 2 weeks at 37° C. under an atmosphere of 5% CO2, 95% air. The change of medium was conducted on 27 days after onset of cultivation. […]

## CCC[C@H](CCCCC(C)=O)C(=O)O [Example 1(1), (2R)-7-oxo-2-propyloctanoic acid]
6 weeks-old male rat
  general side effect: does not show a general side effect
S100β; 30 micromol/L-treated group (n=4), P<0.001 Dunnett test
  intracellular content of S100β: 1489.0±37.84 ng/mg unit protein
S100β; 100 micromol/L-treated group
  intracellular content of S100β: 1053.5±39.57 ng/mg unit protein

## CCC[C@H](CCCC[C@@H](C)O)C(=O)O [Example 1(2), (2R,7R)-7-hydroxy-2-propyloctanoic acid]
S100β; 100 micromol/L-treated group
  intracellular content of S100β: 1422.5±74.70 ng/mg unit protein

## CCC[C@H](CCCCCCO)C(=O)O [Example 1(4), (2R)-8-hydroxy-2-propyloctanoic acid]
6 weeks-old male rat
  general side effect: does not show a general side effect
S100β; 100 micromol/L-treated group
  intracellular content of S100β: 1192.8±58.78 ng/mg unit protein
